Drawing on ChEMBL document CHEMBL1123987, “Oral absorption of cephalosporin antibiotics. 3. Synthesis and biological properties of 7 alpha-methoxy-7 beta-(arylacetamido)-3-chloro-3-cephem-4-carboxylic acids” (1988), this text covers MIC for seven compounds.

Holding throughout (format): functional
Assay [1] has as its system Escherichia coli. Put plainly: Minimum inhibitory concentration against Escherichia coli.
Assay [2] has as its system Haemophilus influenzae. As to the kind of experiment: Minimum inhibitory concentration against H influenzae(beta-lactamase (-)).
The subject of assay [3] is Haemophilus influenzae. As to the kind of experiment: Minimum inhibitory concentration against Haemophilus influenzae (beta-lactamase (+)).
Assay [4] concerns Streptococcus pyogenes. As to the kind of experiment: Minimum inhibitory concentration against Streptococcus pyogenes.
Assay [5] has as its system Staphylococcus aureus. As to the kind of experiment: Minimum inhibitory concentration against Staphylococcus aureus.
The subject of assay [6] is Streptococcus pneumoniae. As to the kind of experiment: Minimum inhibitory concentration against Streptococcus pneumoniae.
Assay [7] concerns Haemophilus influenzae. Put plainly: Minimum inhibitory concentration against H influenzae (beta-lactamase (-)).

In brackets after ≈: the same amount, converted by molar mass.

Regarding `CO[C@@]1(NC(=O)Cc2csc(N)n2)C(=O)N2C(C(=O)O)=C(Cl)CSC21` (some centres not stated), the MIC in assay [1] amounted to 8 µg/mL (≈ 19.8 µM); in assay [2], 16 µg/mL (≈ 39.5 µM); in assay [3], 16 µg/mL (≈ 39.5 µM); in assay [4], 1 µg/mL (≈ 2.47 µM); in assay [5], 16 µg/mL (≈ 39.5 µM); in assay [6], 0.5 µg/mL (≈ 1.24 µM).
As to `O=C(COc1ccccc1)N[C@@H]1C(=O)N2C(C(=O)O)=C(Cl)CSC12` (some centres not stated), the MIC in assay [1] came to 64 µg/mL (≈ 174 µM); in assay [3], 2 µg/mL (≈ 5.42 µM); in assay [4], 0.125 µg/mL (≈ 0.339 µM); in assay [5], 0.25 µg/mL (≈ 0.678 µM); in assay [6], 0.25 µg/mL (≈ 0.678 µM); in assay [7], 2 µg/mL (≈ 5.42 µM).
In the case of `Nc1nc(CC(=O)N[C@@H]2C(=O)N3C(C(=O)O)=C(Cl)CSC23)cs1` (some centres not stated), the MIC in assay [1] is 1 µg/mL (≈ 2.67 µM); in assay [2] it was 1 µg/mL (≈ 2.67 µM); in assay [3], 1 µg/mL (≈ 2.67 µM); in assay [4], 0.125 µg/mL (≈ 0.333 µM); in assay [5], 1 µg/mL (≈ 2.67 µM); in assay [6] it was 0.5 µg/mL (≈ 1.33 µM).
With `CO[C@@]1(NC(=O)Cc2cccs2)C(=O)N2C(C(=O)O)=C(Cl)CSC21` (some centres not stated), the MIC was above 128 µg/mL in assay [1]; above 128 µg/mL in assay [2]; above 128 µg/mL in assay [3]; 128 µg/mL (≈ 329 µM) in assay [4]; above 128 µg/mL in assay [5]; 128 µg/mL (≈ 329 µM) in assay [6].
`CO[C@@]1(NC(=O)COc2ccccc2)C(=O)N2C(C(=O)O)=C(Cl)CSC21` (some centres not stated): the MIC in assay [1] is above 128 µg/mL; in assay [2], above 128 µg/mL; in assay [3], above 128 µg/mL; in assay [4] it was 128 µg/mL (≈ 321 µM); in assay [5], above 128 µg/mL; in assay [6], 128 µg/mL (≈ 321 µM).
Take `O=C(Cc1cccs1)N[C@@H]1C(=O)N2C(C(=O)O)=C(Cl)CSC12` (some centres not stated): the MIC in assay [1] was 4 µg/mL (≈ 11.1 µM); in assay [2] it was 1 µg/mL (≈ 2.79 µM); in assay [3], 1 µg/mL (≈ 2.79 µM); in assay [4], 0.125 µg/mL (≈ 0.348 µM); in assay [5], 0.5 µg/mL (≈ 1.39 µM); in assay [6] it was 0.125 µg/mL (≈ 0.348 µM).
Take `N[C@@H](C(=O)N[C@@H]1C(=O)N2C(C(=O)O)=C(Cl)CS[C@H]12)c1ccccc1.O` [CEFACLOR]: the MIC in assay [1] stood at 1 µg/mL; in assay [2], 1 µg/mL; in assay [3], 2 µg/mL; in assay [4], 0.25 µg/mL; in assay [5], 1 µg/mL; in assay [6] it was 0.5 µg/mL.
